# Data published in PMC6232145, “Intrinsic disorder in the regulatory N-terminal domain of diacylglycerol acyltransferase 1 from Brassica napus” (Scientific Reports, 2018).
# How the values were obtained:
# [1] = biological target: T1, Brassica napus diacylglycerol acyltransferase 1 (BnaDGAT1, isoform BnaC.DGAT1.a) (Brassica napus, UniProt Q9M4V2); test: ITC ([…] stoichiometry); supported by CD; type: binding
# T1 construct: gene DGAT1-4; BnaDGAT1_1-113, cytoplasmic N-terminal domain (residues 1-113), N-terminal 10 x His-tag
# T1 sequence (Q9M4V2 1-113): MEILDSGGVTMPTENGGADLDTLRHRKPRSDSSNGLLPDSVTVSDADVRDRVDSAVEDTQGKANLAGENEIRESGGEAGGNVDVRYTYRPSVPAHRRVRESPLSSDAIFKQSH
# [2] = biological target: T1, Brassica napus diacylglycerol acyltransferase 1 (BnaDGAT1, isoform BnaC.DGAT1.a); test: ITC ([…] stoichiometry); supported by thermal shift (about […] degree Tm increase) and CD; type: binding
Kd [1] [µM],Kd [2] [µM],Compound
60 ± 10,,CC(C)(COP(=O)(O)OP(=O)(O)OC[C@H]1O[C@@H](n2cnc3c(N)ncnc32)[C@H](O)[C@@H]1OP(=O)(O)O)[C@@H](O)C(=O)NCCC(=O)NCCS [CoA]
,10 ± 0.01,CCCCCCCC/C=C\CCCCCCCC(=O)SCCNC(=O)CCNC(=O)[C@H](O)C(C)(C)COP(=O)(O)OP(=O)(O)OC[C@H]1O[C@@H](n2cnc3c(N)ncnc32)[C@H](O)[C@@H]1OP(=O)(O)O [oleoyl-CoA]
